Experiments:
[1] = test system: SKOV3 (human ovarian carcinoma) cells; test: In vitro cytotoxicity (antiproliferative activity), CCK-8 assay, SKOV3; assay type: cell-based; details: Homo sapiens, SK-OV-3, 48 h exposure, CCK-8
Description: (§1) In vitro cytotoxicity of the phosphorated aspartic acid derivatives was evaluated by testing their antiproliferative activities against several human cancer cell lines. Cell counting kit (CCK-8) assay was used for the evaluation of growth inhibition. […] In addition, trisubstituted aminophosphonate 9a (Imine precursor, R^1 = H, R^2 = P(O)(OMe)2) and tetrasubstituted aminophosphonate 18 (R^1 = Me, R^2 = P(O)(OMe)2) are used as templates in order to evaluate the effect of the substituents (Table 1).
(§2) Human epithelial lung carcinoma cells (A549) (ATCC® CCL-185™, ATCC, Manassas, VA, USA) were grown in Kaighn’s Modification of Ham’s F-12 Medium (ATCC® 30-2004™, ATCC, Manassas, VA, USA) and lung fibroblast cells (MRC5) (ATCC® CCL-171™, ATCC, Manassas, VA, USA) were grown in Eagle’s Minimum Essential Medium (EMEM, ATCC® 30-2003™, ATCC, Manassas, VA, USA). Epithelial ovary adenocarcinoma cells (SKOV3) (ATCC® HTB-77™, ATCC, Manassas, VA, USA) were grown in McCoy’s 5A medium (ATCC® 30-2007™, ATCC, Manassas, VA, USA). All of them were supplemented with 10% of fetal bovine serum (FBS) (Sigma-Aldrich, Madrid, Spain) and with 1% of NORMOCIN solution (Thermo Fisher, Waltham, MA, USA). Cells were incubated at 37 °C and 5% CO2 atmosphere, and were split every 3–4 days to maintain monolayer coverage. For the cytotoxicity experiments, the A549 and SKOV3 cells were seeded in 96-well plates at a density of 2.5–3 × 10^3 cells per well and incubated overnight to achieve 70% of confluence at the time of exposition to the cytotoxic compound.
(§3) Cells were exposed to different concentrations of the cytotoxic compounds and were incubated for 48 h. Then, 10 µL of cell counting kit-8 was added into each well for an additional two hours’ incubation at 37 °C. The absorbance of each well was determined by an Automatic Elisa Reader System (Thermo Scientific Multiskan FC Automatic Elisa Reader System, Thermo Scientific, Shanghai, China) at 450 nm wavelength.

[2] = test system: A549 (carcinomic human alveolar basal epithelial) cells; test: In vitro cytotoxicity (antiproliferative activity), CCK-8 assay, A549; assay type: cell-based; details: Homo sapiens, A549, 48 h, 48 h exposure, CCK-8
Description: as §1, §2, §3

[3] = test system: MRC5 lung fibroblast cells; test: Selective toxicity, CCK-8 assay, non-malignant MRC5 lung fibroblasts; assay type: cell-based; details: for IC50: Homo sapiens, non-malignant MRC5 lung fibroblasts, 48 h exposure, CCK-8
Description: as §1, §2, §3

SMILES | melting point | IC50 [1] | IC50 [2] | IC50 [3] | toxicity toward MRC5 non-malignant cells (in words) ([3]; MRC5 cells)
CCOC(=O)CC(NS(=O)(=O)c1ccc(C)cc1)(c1ccc(F)cc1F)P(=O)(OC)OC (centres unmarked) [7m, Ethyl 3-(2,4-difluorophenyl)-3-(dimethoxyphosphoryl)-3-((4-methylphenyl)sulfonamido)propanoate] | 135 to 136 °C | > 50 µM | 2.24 ± 0.31 µM | > 50 µM | 
CCOC(=O)CC(NS(=O)(=O)c1ccc(C)cc1)(c1ccc(F)c(F)c1)P(=O)(OC)OC (centres unmarked) [7n, Ethyl 3-(3,4-difluorophenyl)-3-(dimethoxyphosphoryl)-3-((4-methylphenyl)sulfonamido)propanoate] | 98 to 99 °C | > 50 µM | 5.7 ± 0.7 µM | > 50 µM | 
CCOC(=O)CC(NS(=O)(=O)c1ccc(C)cc1)(c1ccc(C(F)(F)F)cc1)P(=O)(OC)OC (centres unmarked) [7p, Ethyl 3-(dimethoxyphosphoryl)-3-((4-methylphenyl)sulfonamido)-3-(4-(trifluoromethyl)phenyl)propanoate] | 114 to 115 °C | 9.8 ± 0.6 µM | 20.3 ± 1.14 µM | > 50 µM | no toxicity
CCOC(=O)CC(NS(=O)(=O)c1ccc(C)cc1)(c1ccc([N+](=O)[O-])cc1)P(=O)(OC)OC (centres unmarked) [7q, Ethyl 3-(dimethoxyphosphoryl)-3-((4-methylphenyl)sulfonamido)-3-(4-nitrophenyl)propanoate] | 129 to 130 °C | > 50 µM | 0.67 ± 0.06 µM | > 50 µM | 
CCOC(=O)CC(NS(=O)(=O)c1ccc(C)cc1)(c1ccc(Cl)s1)P(=O)(OC)OC (centres unmarked) [7r, Ethyl 3-(5-chlorothiophen-2-yl)-3-(dimethoxyphosphoryl)-3-((4-methylphenyl)sulfonamido)propanoate] | 93 to 94 °C | 11.8 ± 0.6 µM | 1.04 ± 0.28 µM | > 50 µM | 
CCOC(=O)CC(NS(=O)(=O)c1ccc(C)cc1)(c1ccc(-c2ccccc2)cc1)P(=O)(OC)OC (centres unmarked) [7s, Ethyl 3-([1,1’-biphenyl]-4-yl)-3-(dimethoxyphosphoryl)-3-((4-methylphenyl)sulfonamido)propanoate] | 112 to 113 °C | 17 ± 1.22 µM | 1.48 ± 0.4 µM | > 50 µM | 
COP(=O)(OC)C(CC(=O)OCc1ccccc1)(NS(=O)(=O)c1ccc(C)cc1)c1ccccc1 (centres unmarked) [13b, Benzyl 3-(dimethoxyphosphoryl)-3-((4-methylphenyl)sulfonamido)-3-phenylpropanoate] | 84 to 85 °C | > 50 µM | 5.2 ± 0.16 µM | > 50 µM | 
